According to ChEMBL document CHEMBL3217573, “Diacrylamides as selective G-quadruplex ligands in in vitro and in vivo assays” (Medchemcomm, 2011):
pIC50, pKd: −log10 of the molar value. Activity calls are given as the source filed them. The rule behind the calls is not given here.

What was measured:
[1] = Displacement of thiazole orange from 22AG DNA (unknown origin) preincubated for 10 mins measured after 3 mins by fluorescence spectra analysis
unidentified = test: Selectivity ratio of ligand concentration required to displace thiazole orange from 22AG DNA (unknown origin) to same extent as percentage displacement from ds26 DNA (unknown origin) at 2.5 uM of compound
[2] = Displacement of thiazole orange from ds26 DNA (unknown origin) preincubated for 10 mins measured after 3 mins by fluorescence spectra analysis
Caco-2 = test: Induction of apoptosis in human Caco2 cells after 48 hrs by MTT assay; format: functional, cell-based
MCF7 [3] = test: Cytotoxicity against human MCF7 cells assessed as reduction of cell viability after 10 days by MTT assay relative to control; format: functional
MCF7 [4] = test: Cytotoxicity against human MCF7 cells assessed as reduction of cell viability after 10 days by MTT assay; format: functional, cell-based; conditions: MCF7, 240 h
MCF7 [5] = test: Induction of apoptosis in human MCF7 cells after 48 hrs by MTT assay; format: functional, cell-based
MCF7 [6] = test: Cytotoxicity against human MCF7 cells assessed as reduction of cell viability at 2.5 uM after 24 hrs by MTT assay; format: functional

Row | SMILES | pKd [1] | Selectivity ratio (unidentified) | pKd [2] | Activity (Caco-2) | Activity (MCF7 [3]) [%] | pIC50 (MCF7 [4]) | Activity (MCF7 [5]) | Activity (MCF7 [6]) [%]
1 | COc1ccc2cc3[n+](cc2c1OC)CCc1cc2c(cc1-3)OCO2 [BERBERINE] | 3.66 | 0.1 | 5.75 |  |  |  |  | 
2 | O=C(/C=C/c1c2ccccc2c(/C=C/C(=O)NC(CO)(CO)CO)c2ccccc12)NC(CO)(CO)CO |  | 0 | 4.65 |  |  |  |  | 
3 | NC(=O)/C=C/c1c2ccccc2c(/C=C/C(N)=O)c2ccccc12 | 7.52 | 33.3 | 5.68 | inactive | >80 | 5.60 | inactive | 
4 | O=C(/C=C/c1c2ccccc2c(Br)c2ccccc12)N1CCOCC1 | 6.77 | 5 | 5.75 |  |  |  |  | 
5 | O=C(/C=C/c1c2ccccc2c(/C=C/C(=O)N2CCOCC2)c2ccccc12)N1CCOCC1 | 4.70 | 0 | 6.54 |  |  |  |  | 40
6 | CC(=O)CC(C)(C)NC(=O)/C=C/c1c2ccccc2c(/C=C/C(=O)NC(C)(C)CC(C)=O)c2ccccc12 | 7.15 | 5.6 | 6.44 |  |  |  |  | 
